From article PMC4043872 (Chembiochem : a European journal of chemical biology, 2014)
pKi: −log10 of the molar value.

Tests used:
[1] = molecular target: T1, ALDH2 (Homo sapiens, UniProt P05091); assay: ALDH2 inhibition, propionaldehyde as substrate; format: biochemical; conditions: up to 250 μM
T1 sequence (P05091 18-517): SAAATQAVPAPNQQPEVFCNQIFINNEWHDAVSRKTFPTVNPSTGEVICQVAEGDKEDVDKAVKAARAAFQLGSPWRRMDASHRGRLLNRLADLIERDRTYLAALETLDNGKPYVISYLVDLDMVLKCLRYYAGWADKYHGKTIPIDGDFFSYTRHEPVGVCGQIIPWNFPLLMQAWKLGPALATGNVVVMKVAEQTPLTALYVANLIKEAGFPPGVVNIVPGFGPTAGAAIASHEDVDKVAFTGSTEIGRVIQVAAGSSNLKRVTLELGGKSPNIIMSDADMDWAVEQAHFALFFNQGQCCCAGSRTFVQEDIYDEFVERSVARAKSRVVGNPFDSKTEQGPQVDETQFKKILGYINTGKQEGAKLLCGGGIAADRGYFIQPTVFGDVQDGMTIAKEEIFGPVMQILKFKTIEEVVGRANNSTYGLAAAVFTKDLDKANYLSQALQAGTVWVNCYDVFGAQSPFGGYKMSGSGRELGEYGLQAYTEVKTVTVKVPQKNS

[2] = molecular target: T2, ALDH1A2 (Homo sapiens, UniProt O94788); assay: ALDH1A2 activity assay, propionaldehyde/NAD+; format: biochemical; conditions: up to 250 μM
T2 sequence (O94788 1-518): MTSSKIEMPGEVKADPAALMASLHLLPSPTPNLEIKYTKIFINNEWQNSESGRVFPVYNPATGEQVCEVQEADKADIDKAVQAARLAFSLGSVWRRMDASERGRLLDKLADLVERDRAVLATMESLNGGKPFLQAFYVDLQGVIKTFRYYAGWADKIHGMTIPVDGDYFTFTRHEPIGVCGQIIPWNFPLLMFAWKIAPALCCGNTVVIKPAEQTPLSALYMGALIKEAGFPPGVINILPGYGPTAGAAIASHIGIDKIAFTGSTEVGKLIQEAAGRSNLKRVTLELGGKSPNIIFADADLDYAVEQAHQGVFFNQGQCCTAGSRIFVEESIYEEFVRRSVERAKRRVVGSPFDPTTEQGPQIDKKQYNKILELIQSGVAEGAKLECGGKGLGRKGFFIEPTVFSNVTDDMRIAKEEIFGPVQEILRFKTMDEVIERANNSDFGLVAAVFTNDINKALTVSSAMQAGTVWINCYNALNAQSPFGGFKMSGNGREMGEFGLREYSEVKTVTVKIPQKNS

[3] = test system: A549 cells; conditions: 50 μM inhibitor alone, 19 hours, MTT, Figure 4A grey bars
[4] = molecular target: T3, ALDH1A1 (Homo sapiens, UniProt P00352); assay: ALDH1A1 inhibition, propionaldehyde as substrate; format: biochemical; conditions: up to 250 μM
T3 sequence (P00352 1-501): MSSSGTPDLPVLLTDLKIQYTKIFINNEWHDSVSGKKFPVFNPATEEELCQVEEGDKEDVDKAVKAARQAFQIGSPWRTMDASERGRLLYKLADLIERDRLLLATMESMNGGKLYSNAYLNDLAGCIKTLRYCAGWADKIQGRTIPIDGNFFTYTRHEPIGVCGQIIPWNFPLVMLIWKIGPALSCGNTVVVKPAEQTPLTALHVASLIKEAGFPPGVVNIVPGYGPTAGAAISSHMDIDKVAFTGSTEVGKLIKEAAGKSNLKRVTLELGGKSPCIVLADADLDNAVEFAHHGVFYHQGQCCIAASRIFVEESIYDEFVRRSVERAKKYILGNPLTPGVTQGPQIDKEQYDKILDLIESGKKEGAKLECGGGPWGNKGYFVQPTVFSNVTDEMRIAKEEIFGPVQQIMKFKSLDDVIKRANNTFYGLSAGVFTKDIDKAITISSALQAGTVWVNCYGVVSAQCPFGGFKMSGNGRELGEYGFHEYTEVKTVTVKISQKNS

[5] = molecular target: T4, ALDH1B1 (Homo sapiens, UniProt P30837); assay: ALDH1B1 activity assay, propionaldehyde/NAD+; format: biochemical; conditions: up to 250 μM
T4 sequence (P30837 18-517): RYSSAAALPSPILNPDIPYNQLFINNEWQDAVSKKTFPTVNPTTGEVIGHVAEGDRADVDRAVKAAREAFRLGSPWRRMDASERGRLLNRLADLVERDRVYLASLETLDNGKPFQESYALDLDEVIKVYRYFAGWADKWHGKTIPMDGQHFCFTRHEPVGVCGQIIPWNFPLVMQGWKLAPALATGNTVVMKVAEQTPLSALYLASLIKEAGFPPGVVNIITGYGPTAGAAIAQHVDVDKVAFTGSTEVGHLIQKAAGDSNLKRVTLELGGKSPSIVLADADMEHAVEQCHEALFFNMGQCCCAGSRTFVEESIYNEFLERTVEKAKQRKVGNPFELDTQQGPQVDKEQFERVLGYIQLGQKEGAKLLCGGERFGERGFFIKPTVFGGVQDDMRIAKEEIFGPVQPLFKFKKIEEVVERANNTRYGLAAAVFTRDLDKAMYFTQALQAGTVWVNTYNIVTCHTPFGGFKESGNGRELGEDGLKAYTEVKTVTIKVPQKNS

[6] = molecular target: T5, ALDH3A1 (Homo sapiens, UniProt P30838); assay: Steady-state kinetics, mode of inhibition of ALDH3A1; format: biochemical
T5 sequence (P30838 1-453): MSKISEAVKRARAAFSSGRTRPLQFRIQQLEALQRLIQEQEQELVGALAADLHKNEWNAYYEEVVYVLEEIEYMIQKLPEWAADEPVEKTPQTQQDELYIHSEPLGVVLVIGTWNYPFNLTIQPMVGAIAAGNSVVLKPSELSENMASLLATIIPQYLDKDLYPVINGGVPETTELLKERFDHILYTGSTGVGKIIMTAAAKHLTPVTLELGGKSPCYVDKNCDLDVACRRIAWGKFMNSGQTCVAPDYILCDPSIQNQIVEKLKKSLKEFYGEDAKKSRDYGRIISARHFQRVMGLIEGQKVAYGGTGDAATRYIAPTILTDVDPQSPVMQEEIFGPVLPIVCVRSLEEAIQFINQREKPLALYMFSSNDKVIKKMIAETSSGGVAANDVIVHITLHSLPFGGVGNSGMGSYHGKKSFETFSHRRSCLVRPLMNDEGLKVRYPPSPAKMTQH

[7] = molecular target: T6, ALDH3A1 activity in SF767 cell lysates (Homo sapiens, UniProt P30838); assay: Cell lysate ALDH3A1 activity in presence and absence of CB29, SF767; format: biochemical; conditions: 50 μM CB29, […] NADP+, 1 mM benzaldehyde
T6 sequence (P30838 1-453): T5 sequence (P30838 1-453)

[8] = Formation of homogeneous solution; format: physicochemical; conditions: in the presence of […] DMSO
[9] = test system: CCD-13Lu cells; assay: Colorimetric MTT assay for mafosfamide sensitivity, CCD-13Lu; conditions: 19 hours, Figure 4C
[10] = molecular target: T7, ALDH1A3 (Homo sapiens, UniProt P47895); assay: ALDH1A3 activity assay, propionaldehyde/NAD+; format: biochemical; conditions: up to 250 μM
T7 sequence (P47895 1-512): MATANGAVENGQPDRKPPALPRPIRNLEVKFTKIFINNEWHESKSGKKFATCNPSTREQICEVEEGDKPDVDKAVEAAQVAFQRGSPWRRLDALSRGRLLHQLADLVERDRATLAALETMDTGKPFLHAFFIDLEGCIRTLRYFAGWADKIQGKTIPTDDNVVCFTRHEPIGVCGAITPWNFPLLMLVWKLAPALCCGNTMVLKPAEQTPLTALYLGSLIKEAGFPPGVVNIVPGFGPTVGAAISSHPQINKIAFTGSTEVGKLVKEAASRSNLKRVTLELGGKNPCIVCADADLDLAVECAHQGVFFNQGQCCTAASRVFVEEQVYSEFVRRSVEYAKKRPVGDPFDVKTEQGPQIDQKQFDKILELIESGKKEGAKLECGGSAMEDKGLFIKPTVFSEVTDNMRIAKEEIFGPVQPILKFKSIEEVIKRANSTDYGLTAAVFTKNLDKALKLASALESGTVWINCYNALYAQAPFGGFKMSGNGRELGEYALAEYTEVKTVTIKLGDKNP

[11] = molecular target: T5, ALDH3A1; assay: Recombinant ALDH3A1 activity in presence and absence of CB29; format: biochemical; conditions: 50 μM CB29, […] NADP+, 1 mM benzaldehyde
[12] = test system: SF767 cells
[13] = molecular target: T8, ALDH3A1 activity in A549 cell lysates (Homo sapiens, UniProt P30838); assay: Cell lysate ALDH3A1 activity in presence and absence of CB29, A549; format: biochemical; conditions: 50 μM CB29, […] NADP+, 1 mM benzaldehyde
T8 sequence (P30838 1-453): T5 sequence (P30838 1-453)

CC(=O)Nc1ccc(Nc2ccc(S(C)(=O)=O)cc2[N+](=O)[O-])cc1 [CB29, N-[4-{(4-(methylsulfonyl)-2-nitrophenyl)-4-amino}-phenyl]-acetamide]
inhibition toward ALDH2 [1]: < 5%
inhibition toward ALDH1A2 [2]: < 5%
effect on cell proliferation as single agent, A549 (in words) [3]: little effect
inhibition toward ALDH1A1 [4]: < 5%
inhibition toward ALDH1B1 [5]: < 5%
pKi ([6]; competitive versus varied benzaldehyde, fixed NADP+ […], 10 nM ALDH3A1): 5.40
mode of inhibition ([6]; with respect to benzaldehyde): competitive
decrease of ALDH3A1 activity in SF767 cell lysate [7]: > 90%
homogeneous solution formed [8]: ≥ 100 µM
enhancement of mafosfamide sensitivity, CCD-13Lu (in words) ([9]; 50 μM inhibitor + 40 μM mafosfamide): did not show mafosfamide chemosensitivity
cytotoxicity / proliferation with inhibitor alone, CCD-13Lu (in words) ([9]; 50 μM inhibitor): unaffected
inhibition toward ALDH1A3 [10]: < 5%
decrease of activity of recombinant ALDH3A1 [11]: ~ 97%
increase in mafosfamide chemosensitivity, SF767 ([12]; 50 μM inhibitor + […] mafosfamide, 19 hours, MTT, p<0.005): ~2 fold
effect on cell proliferation as single agent, SF767 (in words) ([12]; 50 μM inhibitor alone, 19 hours, MTT, Figure 4B grey bars): little effect
decrease of ED50 value of mafosfamide in the presence of inhibitor, SF767 ([12]; inhibitor 50 μM, Figure 5B): 1.6 fold
ED50 of mafosfamide in the presence of inhibitor, SF767 ([12]; inhibitor 50 μM, mafosfamide 0-250 μM, MTT, Figure 5B): 92 ± 4 µM
decrease of ALDH3A1 activity in A549 cell lysate [13]: > 95%
